Assay results: patent US20250381173A1, “Long-Lasting Anaesthetic Formulation” (BERTIE INTERNATIONAL AB, priority 2022, published 2025)
Several values for one entry are separate records, joined by “and”; a condition that tells them apart may be missing. Equal values may be shown once.

What was measured:
female rats [1] = assay: Local anesthesia pilot study, prick (sensitivity) test after one s.c. injection; type: in vivo, Sprague Dawley rats; settings: data not shown
Procedure: (§1) In order to evaluate administration of local anesthesia in a sensitivity test in female rats a pilot- and an efficacy study was performed.
(§2) Sprauge Dawley rats (females, 10 weeks) were acquired from Janvier Europe. Rats were housed in the animal facility, Medicon Village, Lund, Sweden. The rats were kept at 12 h light/dark cycles in polystyrene cages (type III cages, 2-3 rats per cage) comprising wood shavings. The rats were fed with standard rodent diet and water ad libitum. The rats were acclimatized for approximately one week before initiation of the experiment. The rats were identified by a marking on the tail with a permanent marker day 1.
Formulation of reference anesthesia ropivacaine, was prepared such that the pH of the composition and the concentration and dose of ropivacaine where essentially identical to the compositions of the invention. The concentration of Ropivacaine was 5 mg/ml in the formulation and was administered at a dose of 1 mg/kg bodyweight in 2 animals, 0.25 mg/kg bodyweight in 2 animals; and placebo PBS (phosphate buffered saline) in 2 animals. The vehicle and reference anesthesia were administrated s. c. (subcutaneous) in one single injection at time 0.
The rats were shaved at the back and habituated to the experimental environment for 30 minutes prior to the testing. […] The rat's reaction in the form of wrinkling of the skin was evaluated by ocular inspection.

[2] = Impurity analysis: 2,6-dimethylaniline (Impurity H) by UPLC-UV and UPLC-UV-MS; type: physicochemical
Procedure: Qualitative LC-analyzes were performed on samples from the stage in the formulation procedure after ropivacaine was added. LC analyzes with ultraviolet light (UV) detection were performed on a Thermo Fischer Scientific Vanquish UPLC instrument employing a Waters BEH C18 1.7 um 2.1*150 mm chromatographic column at 0.3 mL/min flow rate and otherwise method according to European pharmacopoeia 11.1, monograph 01/2017:2335 ‘Ropivacaine Hydrochloride Monohydrate’.
LC analyzes with UV and MS detection were carried out on a Waters Acquity UPLC Quattro Micro MS-instrument with electrospray ionisation (ESI) in positive-negative switching mode. The method used was based on monograph 01/2017:2335 as above, however, the mobile phase was changed to a MS-compatible one; instead of phosphate buffer 0.1% NH3/MeCN with gradient elution was used.
One of the impurities of ropivacaine specified in the pharmacopeial monograph Eu Pharm 11.1, 01/2017:2335 as Impurity H, the carcinogenic 2,6-dimethylaniline, was analyzed in prepared formulations by LC-UV and LC-UV-MS against 2,6-dimethylaniline reference material.
Specified Impurity H of ropivacaine of Ph. Eur. 11.1, 01/2017:2335-2,6-dimethylaniline—was not detected (<0.05 area-%), neither in the ropivacaine reference standard nor in the formulated samples of ropivacaine of microwave heated triethanolamine, as analyzed by UPLC-UV (240 nm) and UPLC-UV-MS (Full scan m/z 50-800). As such, it was concluded that 2,6-dimethylaniline is not produced in the treatment of a formulation of the present disclosure.

female rats [3] = assay: Local anesthesia efficacy test, prick test after one s.c. injection; type: in vivo, Sprague Dawley rats; settings: 0.25 mg/kg s.c.
Procedure: as §1, §2
Formulation of reference anesthesia Ropivacaine, was prepared in the same way as for the pilot study.
The rats were shaved at the back and habituated to the experimental environment for 30 minutes prior to the testing. The sensitivity test was performed at 6 different time points within 6 hours after administration of the test item (30 min, 1 h, 2 h, 3 h, 4 h, 5 h) by touching each rat with a needle. The rat's reaction in the form of wrinkling of the skin was evaluated by ocular inspection, giving each monitored response a value of 0 (no response) or 1 (response).

sciatic nerve = assay: In vivo test 3: sensitivity test (tweezer), motor and sensor block after s.c. injection close to the sciatic nerve; parameters: species or system Wistar albino rats
Procedure: Male Wistar albino rats, weighing 200-250 g, obtained from SYLAB Experimental Animals Laboratory, were used in the experiments. The animals were kept in a 12 hour light-12 hour dark light period under standard conditions and fed with standard pellet water (ad libitum). All studies were carried out in accordance with international ethical rules, without abusing animal rights.
Formulations used were the same as in Example 2, with additional storage. The formulations were stored for 7 months at different temperatures. At first, the formulations were stored in the freezer for 6 months. Thereafter there were alterations in temperature storage; the formulations were iteratively stored in room temperature and in the fridge before use.
The compositions were administrated s. c. in one single injection at time 0. The compositions were administrated to a position in close proximity to the sciatic nerve. • Group 1: Ropivacaine 7.5 mg/ml, 1.1-1.2 ml. Total=at least 8.25 mg ropivacaine. This composition is commercial ropivacaine (Ropivacaina Inibsa, injectable solution). • Group 2: Ropivacaine 4 mg/ml, 2 ml, pH 5 (Test 1). Total=8 mg ropivacaine.
The sensitivity test was performed at 9 different time points within 9 hours after administration of the test item (1 h, […], 2 h, 3 h, 4 h, 5 h, 6 h, 7 h, 8 h and 9 h) by touching each rat with a tweezer. The rat's reaction in the form of wrinkling of the skin was evaluated by ocular inspection, giving each monitored response a value of 0 (no response), 0.5 (low response) or 1 (response).

[4] = individual rat, score 0, 0.5 or 1, 0 h
[5] = individual rat, score 0, 0.5 or 1, 1 h
[6] = individual rat, score 0, 0.5 or 1, 2 h
[7] = individual rat, score 0, 0.5 or 1, 3 h
[8] = individual rat, score 0, 0.5 or 1, 4 h
[9] = individual rat, score 0, 0.5 or 1, 5 h
[10] = individual rat, score 0, 0.5 or 1, 6 h
[11] = individual rat, score 0, 0.5 or 1, 7 h

## CCCN1CCCC[C@H]1C(=O)Nc1c(C)cccc1C [Ropivacaine, ropivacaine]
Female rats [1]; 0.25 mg/kg bodyweight s.c.
  duration of the anesthetic effect: 2 h
Female rats [1]; 1 mg/kg bodyweight s.c.
  duration of the anesthetic effect: 5 h
[2]; Full scan m/z 50-800
  Impurity H (2,6-dimethylaniline), UPLC-UV-MS: Not detected
[2]; UV 240 nm
  Impurity H (2,6-dimethylaniline), UPLC-UV: Not detected
[2]; not detected, UPLC-UV (240 nm) and UPLC-UV-MS
  2,6-dimethylaniline (Impurity H) level: < 0.05 area-%
Female rats [3]; group of 3 rats
  Average value of first response: 1.8 h
Female rats [3]; individual rat, 0 = no response (anesthesia), 1 = response, 0.5 mg/ml, 0.5 h, 0.25 mg/kg
  Prick test response, 0.5 h: 0 (2×) and 1
Female rats [3]; individual rat, 0 = no response (anesthesia), 1 = response, 1 h, 0.25 mg/kg
  Prick test response, 1 h: 0 (2×) and 1
Female rats [3]; individual rat, 0 = no response (anesthesia), 1 = response, 2 h, 0.25 mg/kg
  Prick test response, 2 h: 1 (2×) and 0
Female rats [3]; individual rat, 0 = no response (anesthesia), 1 = response, 3 h
  Prick test response, 3 h: 1
Female rats [3]; individual rat, 0 = no response (anesthesia), 1 = response, 4 h, 0.25 mg/kg
  Prick test response, 4 h: 1 (2×) and 0
Female rats [3]; individual rat, 0 = no response (anesthesia), 1 = response, 5 h
  Prick test response, 5 h: 1
Sciatic nerve; group average
  Loss Motor block, average: 3.3 h
  loss of Sensor block, average: 4.3 h
Sciatic nerve; individual rat
  Loss Motor block: 4 h (4×) and 3 h (2×)
  loss of Sensor block: 6 h (2×) and 3 h (2×) and 4 h (2×)
Sciatic nerve; [4]
  Motor Block, test time 0 h: 1 (5×) and 0.5
  Sensor Block, test time 0 h: 1
Sciatic nerve; [5]
  Motor Block, test time 1 h: 1 (5×) and 0.5
  Sensor Block, test time 1 h: 1
Sciatic nerve; [6]
  Motor Block, test time 2 h: 1 (4×) and 0.5 (2×)
  Sensor Block, test time 2 h: 1
Sciatic nerve; [7]
  Motor Block, test time 3 h: 0.5 and 0 (3×) and 1 (2×)
  Sensor Block, test time 3 h: 1 (4×) and 0 (2×)
Sciatic nerve; [8]
  Motor Block, test time 4 h: 0
  Sensor Block, test time 4 h: 1 and 0 (4×) and 0.5
Sciatic nerve; [9]
  Motor Block, test time 5 h: 0
  Sensor Block, test time 5 h: 1 and 0 (2×) and 0.5
Sciatic nerve; [10]
  Motor Block, test time 6 h: 0
  Sensor Block, test time 6 h: 0
Sciatic nerve; [11]
  Motor Block, test time 7 h: 0
  Sensor Block, test time 7 h: 0
